Measured values published in US20260022142A1, “MACROCYCLIC IMMUNOMODULATORS” (Bristol-Myers Squibb Company, priority 2022, published 2026).
Numbered stars: 1 amine (or outer) side, 2 acyl side, 3 side chain; on linkers, the order of the positions; unused ones are H or OH. Bridge positions count the residues as written; N and C are the ends. Square brackets hold non-standard residues; d marks the D form. Peptide text beside a SMILES is read from it. * marks the point of attachment. ξ: configuration not given here. Phe(3-CF3) = N[C@@H](Cc1cccc(C(F)(F)F)c1)C(=O)O; Phe(4-COOH) = N[C@@H](Cc1ccc(C(=O)O)cc1)C(=O)O; Bip = N[C@@H](Cc1ccc(-c2ccccc2)cc1)C(=O)O; NH(CH2)14COOH = O=C(O)CCCCCCCCCCCCCCN*; Phe(3-Me) = Cc1cccc(C[C@H](N)C(=O)O)c1; βAsp = O=C(O)[C@H](CC(=O)[*:2])N[*:1]; Val(3-OH) = CC(C)(O)[C@H](N)C(=O)O; Cha = N[C@@H](CC1CCCCC1)C(=O)O; Ile(3ξ) = CCC(C)[C@H](N)C(=O)O; Carboxymethyl = O=C(O)C*; Orn = NCCC[C@H](N)C(=O)O; Dab = NCC[C@H](N)C(=O)O; AEEA = NCCOCCOCC(=O)O

target: T1, PD-1/PD-L1 interaction (PE-labeled human PD-L1-Ig binding to Jurkat cell line over-expressing human PD-1) (Homo sapiens, UniProt Q15116); test: Jurkat-PD-1 Cell Binding High-Content Screening Assay (CBA); assay type: cell-based; settings: Jurkat cell line over-expressing human PD-1; PE-labeled PD-L1-Ig 20 nM final; read-out: Jurkat hPD1-PDL1 IC50
T1 construct: expressed in transfected cells; host or cells: Jurkat
Outline: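 First, compound is added to PD-1-expressing Jurkat cells in serum-containing DMEM and left 2 h at 37° C. Next, PE-conjugated PD-L1-Ig is introduced at 20 nM final concentration for 1 hour. Finally, cells are fixed in 4% paraformaldehyde with Hoechst 33342, washed and imaged.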

T1 sequence (Q15116 25-288): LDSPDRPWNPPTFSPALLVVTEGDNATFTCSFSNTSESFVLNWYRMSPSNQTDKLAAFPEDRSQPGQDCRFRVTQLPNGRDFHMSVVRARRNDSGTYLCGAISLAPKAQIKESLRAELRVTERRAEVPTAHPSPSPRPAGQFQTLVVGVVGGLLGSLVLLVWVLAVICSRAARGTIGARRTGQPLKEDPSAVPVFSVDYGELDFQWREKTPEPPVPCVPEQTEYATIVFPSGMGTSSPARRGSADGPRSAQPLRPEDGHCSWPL

| SMILES | IC50 |
| --- | --- |
| Cc1cccc(C[C@@H]2NC(=O)[C@H](CC(=O)O)NC(=O)[C@H](Cc3ccc(C(=O)O)cc3)NC(=O)[C@H](C)NC(=O)CSC[C@@H](C(=O)N[C@@H](CCN)C(=O)NCCOCCOCC(=O)N[C@@H](CCC(=O)O)C(=O)N[C@@H](CC(=O)NCCOCCOCC(=O)NCCCCCCCCCCCCCCC(=O)O)C(=O)O)NC(=O)[C@H](Cc3cnc[nH]3)NC(=O)[C@H](C(C)(C)O)NC(=O)[C@H](CC3CCCCC3)NC(=O)[C@H](CCN)NC(=O)[C@@H](CC(C)C)NC(=O)[C@H](CCCN)NC(=O)[C@H](Cc3ccc(C(=O)O)cc3)NC(=O)[C@H](Cc3ccc(-c4ccccc4)cc3)NC(=O)[C@H](Cc3ccc(C(=O)O)cc3)NC2=O)c1 [Compound 3884] ({CH2CO}-A[Phe(4-COOH)]D[Phe(3-Me)][Phe(4-COOH)][Bip][Phe(4-COOH)][Orn][dL][Dab][Cha][Val(3-OH)]HC[Dab][AEEA]E[βAsp][AEEA]-{NH(CH2)14COOH}; thioether N-14) | 147 nM |
| CCC(C)[C@@H]1NC(=O)[C@H](Cc2ccc(-c3ccccc3)cc2)NC(=O)[C@H](C(C)C)NC(=O)[C@H](Cc2c[nH]c3ccccc23)NC(=O)[C@H](CC(=O)O)NC(=O)[C@H](Cc2ccc(OCC(=O)O)cc2)NC(=O)[C@H](Cc2ccc(OCC(=O)O)cc2)NC(=O)CSC[C@@H](C(=O)N[C@H](C)C(=O)NCCOCCOCC(=O)NCCCCCCCCCCCCCCC(=O)O)NC(=O)[C@H](CCCNC(=N)N)NC(=O)[C@H](C(C)(C)O)NC(=O)[C@H](CC2CCCCC2)NC(=O)[C@H](CCN)NC(=O)[C@@H](CC(C)C)NC(=O)[C@H](CCCN)NC1=O (stereo partly drawn) [Compound 3886] ({CH2CO}-Y(Carboxymethyl)Y(Carboxymethyl)DWV[Bip][Ile(3ξ)][Orn][dL][Dab][Cha][Val(3-OH)]RC[dA][AEEA]-{NH(CH2)14COOH}; thioether N-14) | 202 nM |
| Cc1cccc(C[C@@H]2NC(=O)[C@H](CC(=O)O)NC(=O)[C@H](Cc3ccc(C(=O)O)cc3)NC(=O)[C@H](CCCN)NC(=O)CSC[C@@H](C(=O)N[C@@H](CCN)C(=O)NCCOCCOCC(=O)NCCOCCOCC(=O)N[C@@H](CCC(=O)O)C(=O)N[C@@H](CC(=O)NCCCCCCCCCCCCCCC(=O)O)C(=O)O)NC(=O)[C@H](Cc3cnc[nH]3)NC(=O)[C@H](C(C)(C)O)NC(=O)[C@H](CC3CCCCC3)NC(=O)[C@H](CCN)NC(=O)[C@@H](CC(C)C)NC(=O)[C@H](CCCN)NC(=O)[C@H](Cc3ccc(C(=O)O)cc3)NC(=O)[C@H](Cc3ccc(-c4ccccc4)cc3)NC(=O)[C@H](Cc3ccc(C(=O)O)cc3)NC2=O)c1 [Compound 3887] ({CH2CO}-[Orn][Phe(4-COOH)]D[Phe(3-Me)][Phe(4-COOH)][Bip][Phe(4-COOH)][Orn][dL][Dab][Cha][Val(3-OH)]HC[Dab][AEEA][AEEA]ED(NH(CH2)14COOH)-OH; thioether N-14) | 56.3 nM |
| CC(=O)NCCCC[C@@H]1NC(=O)[C@H](C(C)(C)O)NC(=O)[C@H](CC2CCCCC2)NC(=O)[C@H](CCN)NC(=O)[C@@H](CC(C)C)NC(=O)[C@H](CCCN)NC(=O)[C@H](Cc2ccc(C(=O)O)cc2)NC(=O)[C@H](Cc2ccc(-c3ccccc3)cc2)NC(=O)[C@H](Cc2ccc(C(=O)O)cc2)NC(=O)[C@H](Cc2cccc(C(F)(F)F)c2)NC(=O)[C@H](CC(=O)O)NC(=O)[C@H](Cc2ccc(OCC(=O)O)cc2)NC(=O)[C@H](Cc2cnc[nH]2)NC(=O)CSC[C@@H](C(=O)N[C@@H](CCN)C(=O)NCCOCCOCC(=O)N[C@@H](CC(=O)N[C@@H](CC(=O)O)C(=O)NCCCCCCCCCCCCCCC(=O)O)C(=O)O)NC1=O [Compound 3888] ({CH2CO}-HY(Carboxymethyl)D[Phe(3-CF3)][Phe(4-COOH)][Bip][Phe(4-COOH)][Orn][dL][Dab][Cha][Val(3-OH)]K(Ac)C[Dab][AEEA][βAsp]D-{NH(CH2)14COOH}; thioether N-14) | 116 nM |
